System: β23 (HA-tagged) in SH-SY5Y cells
Experiment: β23 clearance by Western blot and immunofluorescence of HA-tagged β23
Type: cell-based, Human
Conditions: 1 μM; for HA-β23 immunofluorescence signal in mCherry-positive transfected cells: 37 h
Procedure: Figure 1 Peucedanocoumarin IV (PCiv) inhibits β23 aggregations and cytotoxicity in SH-SY5Y cells. (A) Scheme showing the detailed experimental steps in the organic synthesis of racemic PCiv and racemic PCiii (rac-PCiii, and rac-PCiv). Both PCiii and PCiv used in this study are racemic forms. (B) Trypan blue exclusion cell viability assessment in SH-SY5Y cells with Tet-Off-induced β23 expressions. β23 was expressed for 24 h using the Tet-off system. Further expression of β23 was halted by doxycycline (Dox) treatment with simultaneous treatment of the PCiii, PCiv, or their synthetic intermediate, trans-khellatone (t-khellatone, 1 μM 24 h). Cell viability was assessed 24 h after doxycycline treatment (n = 5 per group). (C) Synthetic PCiv’s protective effect on Tet-Off-expressed β23 toxicity in SH-SY5Y cells compared with peucedanocoumarin III (PCiii) determined by trypan blue exclusion assay. (D) The degradation of β23 monitored by Western blot at 37 h after doxycycline (200 ng/mL) treatment. The representative Western blot image of HA (β23) in SH-SY5Y cells treated with synthetic PCiii, synthetic PCiv (1 μM, 37 h), or DMSO as a vehicle. (E) Quantification of HA (β23) expression in SH-SY5Y cells from the indicated experimental groups in panel D (n = 3 experiments per group). (F) Representative immunofluorescence of steady state HA (β23) expression in SH-SY5Y cells expressing Tet-Off regulatable reporter mCherry and HA-tagged β23. […] (G) Quantification of HA (β23) immunofluorescence signal in mCherry positive SH-SY5Y cells in each experimental group (n = 32 cells from three separate experiments per group). The data are expressed as means ± SEMs. * p < 0.05, ** p < 0.01, *** p < 0.001, and **** p < 0.0001, ANOVA test followed by Tukey’s post hoc analysis. […]
Lysis buffer was added to the SH-SY5Y cells washed with ice-cold PBS (1% Nonidet P40 in PBS, pH 7.4) that was supplemented with protease/phosphatase inhibitors. […] The supernatants were quantified through BCA protein assessment. […] Next, band quantification was performed using ImageJ software. […]

Compound | HA-β23 immunofluorescence signal in mCherry-positive transfected cells | steady-state β23 expression levels (Western blot) (37 h after doxycycline)
C/C=C(\C)C(=O)O[C@@H]1c2c(ccc3ccc(=O)oc23)OC(C)(C)[C@H]1OC(C)=O (relative stereo) [PCiii, peucedanocoumarin III] | markedly reduced | 
C/C=C(\C)C(=O)O[C@H]1[C@H](OC(C)=O)c2c(ccc3ccc(=O)oc23)OC1(C)C (relative stereo) [PCiv, trans-4′-acetyl-3′-tigloylkhellactone] | markedly reduced | markedly reduced
